Measurements taken from article PMC7116955 (Biochimica et Biophysica Acta. General Subjects, 2005).
Entries after “also recorded” stand apart in the source; their conditions may differ.

Legend:
Settings in all cases: pH 7.4
[1] = system: Pep 1E; format: binding, SARS-CoV
[2] = system: Pep 1E; format: binding, SARS-CoV; remark: listed apart in the source
[3] = system: Pep 1D; format: binding, SARS-CoV
[4] = system: Pep HR2; format: binding, SARS-CoV
[5] = system: Pep 2B; format: binding, SARS-CoV
[6] = format: physicochemical
[7] = system: Pep 2B; format: binding, SARS-CoV; remark: listed apart in the source
[8] = format: physicochemical; remark: listed apart in the source
[9] = system: Pep HR2; format: binding, SARS-CoV; remark: listed apart in the source
[10] = format: physicochemical; remark: listed apart in the source

WQEWEQKITALLEQAQIQQEKNEYELQKLDKWASLWEWF [Pep T-1249]
fluorescence emission intensity variation on titration with Pep 1E [1]: The same occurs for T-1249, although the results are not so evident | ANS fluorescence / interaction with Pep 1E [2]: does not interact | ANS fluorescence increase / interaction with Pep 1D, S peptide added [3]: exhibit a larger variability; also recorded: low signal/noise ratios, preventing straightforward conclusions | ANS fluorescence / interaction with Pep HR2 [4]: no evidence of interaction | fluorescence emission intensity variation on titration with Pep 2B [5]: Fluorescence variation was not detected | interaction with membranes [6]: most extensive interaction with membranes | ANS fluorescence / interaction with Pep 2B [7]: no evidence of interaction | self-aggregation by ANS fluorescence [8]: self-aggregate | fluorescence emission intensity variation on titration with Pep HR2 [9]: The same occurs for T-1249, although the results are not so evident | membrane partition in presence of Pep 1D [10]: The same occurs | membrane partition in presence of Pep 1E [10]: The same occurs | membrane partition in presence of Pep 2B [10]: no difference occurs | membrane partition in presence of Pep HR2 [10]: no difference occurs
